These results are taken from US20070225171A1 (priority 2001, published 2007).

SMILES strings stand for the structures.

In assay [1] the test system is Plants expressing the dioxygenase encoded by the tfdA gene. The assay can be described thus: Herbicide tolerance of plants expressing the tfdA dioxygenase. The note with it: found by applicant. It is filed as in vivo. An excerpt: See, e.g., Llewellyn and Last, in Herbicide-Resistant Crops Chapter 10, pages 159-174 (Duke, ed., CRC Lewis Publishers 1996). Preferably, additional bacterial codons of the tfdA coding sequence are replaced by plant-preferred codons to obtain better expression of the encoded dioxygenase. […] See, e.g., Llewellyn and Last, in Herbicide-Resistant Crops Chapter 10, pages 159-174 (Duke, ed., CRC Lewis Publishers 1996) and U.S. Pat. Nos. 6,100,446 and 6,153,401.

The subject of assay [2] is SAD1 - Cultivar KY 160 genetically engineered to express a synthetic gene for tolerance to phenoxy herbicides. Put plainly: Yield assay, 2,4-D sprayed on transgenic SAD1 tobacco. The assay is classed as in vivo, Nicotiana tabacum. The note with it: for Plant Yield / Percent Leaf Yield / Corrected Leaf Yield / Corrected Plant Yield / Leaf Yield: SAD1 tobacco, isooctyl ester formulation; for Plant Yield / Corrected Leaf Yield / Corrected Plant Yield / Leaf Yield: dry matter 21 days after spraying; for Percent Leaf Yield: 21 days after spraying. Here is the method:
The use of exogenously supplied synthetic auxins on agronomic crops to elicit direct non-herbicidal effects, with an emphasis on the potential enhancement of yield, was assessed using genetically-engineered (GE) tobacco plant lines expressing synthetic auxin metabolizing genes. Non-GE controls were used, permitting separation of the herbicidal and biological properties of the exogenously supplied synthetic auxins. Tobacco was utilized to model dry matter yield.
The research was conducted in a single phase entailing characterization of response variables when plants were subjected to maximum (1× rate=1 pound/acre of active ingredient) and low (¼×=4 ounces/acre of active ingredient) rates of exogenously applied 2,4-dichlorophenoxyacetic acid (2,4-D). GE lines of tobacco (dark fired cultivar “KY 160”) expressing a synthetic gene for auxin metabolism (SAD1 or SAD2) were used, along with non-GE lines of the same genotype as control material. Commercial tobacco production has long utilized decapitation (“topping”) to initiate a predictable increase in leaf weight, thickness, and dry matter yield. This yield increase is dependent upon variables, such as genotype and fertility. By utilizing controls of the same genotype and a fixed level of fertility, significant yield variation responses should be attributable to the treatment (exogenous auxin herbicide application).
The overall experimental design was comprised of three parallel completely randomized designs with spray rate and genotype as the main factors. Three replications were performed for each treatment within each experiment. Each replication was the average measurement of six plants. The tobacco lines were allowed to advance to the 6-8 leaf stage. Upon reaching this stage, the primary meristem was removed along with lower leaves so that only 4 leaves remained. Plants were then sprayed with herbicide and permitted to grow for an additional 21 days. At the end of this period, dry matter yields for both leaf and the whole plant were measured.
Yield data recorded for tobacco were leaf dry matter, leaf number, and total dry matter. Corrected plant yield and corrected leaf yield were calculated for each replication as the leaf dry matter divided by leaf number then multiplied by the expected number of leaves (6 plants×4 leaves=24). This corrected leaf yield was then added to stem yield fraction (arrived at by subtracting actual leaf yield from total plant yield) to create a corrected total plant yield. All tobacco yield measurements were recorded in grams after a 7-day drying period in ambient air dryers.
Seed of non-transgenic tobacco lines were germinated on MS03 (MS salts, B5 vitamins, 3% sucrose) medium. Transgenic seeds were germinated on the same medium augmented with 300 mg/L kanamycin monosulfate to allow detection of any seedlings failing to carry the transgene. Thirty days after germination, seedlings were transplanted to the greenhouse into flats holding 8 trays of 6 plants each for a total of 48 plants. Plants were permitted to grow for approximately 45 days, at which time 6-8 leaves had developed. Prior to spraying, the top of the plant retaining the uppermost two leaves was removed (decapitated) resulting in the retention of 4 fully-extended leaves for each plant.
For spray assays and for the yield studies, spraying was performed in an Allen Machine Works Spray Cabinet. Spray rates were established as the equivalent of 16 ounces of active ingredient per acre (1× rate), 4 ounces active ingredient/acre (¼× rate), and the control (no active ingredient per acre or 0×). The herbicide used was 2,4-D, isooctyl ester formulation (3.9 pounds of active ingredient/gallon) at equivalent rates noted above. To achieve this equivalent 1× field rate, 500 microliters of herbicide were diluted into a total volume of 50 ml. The ¼× field rate was achieved by diluting 125 microliters of herbicide in a 50 ml volume. […]

Assay [3] relates to tomato genotype UC82L (control). The assay can be described thus: Fruit yield assay, 2,4-D sprayed on non-transgenic tomato. The settings on record: for Total Yield (Fresh Fruit Yield) / Fruit Weight (Average Fresh Fruit Weight) / Total Flowers / Fruit per Plant / Total Fruit No.: UC82L; for Total Yield (Fresh Fruit Yield): harvested over 60 days; for Fruit Weight (Average Fresh Fruit Weight) / Total Flowers / Fruit per Plant / Total Fruit No.: 60 days; for Total Flowers: Flower Number/plant/replication/treatment; for Fruit per Plant: Fruit Number/plant/replication/treatment; for Total Fruit No.: Total Fruit Number/replication/treatment. The assay is classed as in vivo, Lycopersicon esculentum. An excerpt:
The use of exogenously supplied synthetic auxins on agronomic crops to elicit direct non-herbicidal effects was further assessed using genetically-engineered tomato plant lines expressing a synthetic auxin metabolizing gene, and non-genetically-engineered controls. Tomato was utilized to model fruit retention (fruit set) and fruit yield. The transgenic tomato line was utilized in the T2 generation with the transgene fixed in a homozygous fashion. The tomato genotype UC82L was utilized as the control, as well as the background for tranformation with the pPZP211-PNPT-311-SAD2 binary plasmid. This genotype was chosen because it is more likely to closely approximate the behavior of field-grown tomatoes than some short-life-cycle laboratory strains of tomato.
In the same manner as for tobacco, the research was conducted in a single phase entailing characterization of response variables when plants were subjected to the maximum (1× rate=1 pound/acre of active ingredient) and low (¼×=4 ounces/acre of active ingredient) rates of exogenously applied 2,4-D. The overall experimental design was comprised of three parallel completely randomized designs with spray rate and genotype as the main factors. Three replications were performed for each treatment within each experiment. Each replication was the average of three plants that were harvested over a period of 60 days. Fruit number, fruit weight and flower number were measured directly, with average fruit weight and average fruit per plant being derived by dividing fruit weight and fruit number within a replication by the number of plants (3). Tomato fruit yield was measured on fresh fruit and recorded in grams.
Non-transgenic and transgenic seed were germinated and grown as described in Example 1 for tobacco. The transgenic tomato line was utilized in the T2 generation with the transgene fixed in a homozygous fashion.
The plants with 4 fully-extended leaves retained were sprayed as described in Example 1. Each replication (3 plants) was sprayed independently and permitted to dry before being moved back to the greenhouse for further growth for 60 days.
Fruit number, fruit weight, and flower number were measured directly during this 60-day period. Tomato fruit yield was measured on fresh fruit and recorded in grams.

Regarding `O=C(O)COc1ccc(Cl)cc1Cl` [2,4-D, 2,4-dichlorophenoxyacetic acid], in assay [1], the “tolerance of plants to the herbicide” value is reported as “tolerant”. The “Plant Yield” value in assay [2] (2,4-D rate 1X (1 pound active ingredient/acre)) was 42.5 grams/plant/replication/treatment. Also, in assay [2] (2,4-D rate 1X), the “Percent Leaf Yield” value turned out to be 44.7%, the “Corrected Leaf Yield” value is on record as 19.1 grams/plant/replication/treatment, the “Corrected Plant Yield” value is 42.7 grams/plant/replication/treatment and the “Leaf Yield” value was 18.8 grams/plant/replication/treatment. The “Plant Yield” value in assay [2] (2,4-D rate ¼X (4 ounces active ingredient/acre)) is 43.5 grams/plant/replication/treatment. For the same compound, in assay [2] (2,4-D rate ¼X), the “Percent Leaf Yield” value was found to be 40.5%, the “Corrected Leaf Yield” value was 17.8 grams/plant/replication/treatment, the “Corrected Plant Yield” value is reported as 43.9 grams/plant/replication/treatment and the “Leaf Yield” value is recorded as 17.4 grams/plant/replication/treatment. For the same compound, in assay [2] (transgenic material (SAD1) sprayed with either the ¼× or 1× rate), the “effect on yield” value was “significant increase in yield”. Also, in assay [3] (spray rate 1X (1 pound active ingredient/acre), 2,4-D isooctyl ester formulation), the “Total Yield (Fresh Fruit Yield)” value is 35.3 grams/plant/replication/treatmen. In addition, in assay [3] (spray rate 1X), the “Fruit Weight (Average Fresh Fruit Weight)” value is listed as 14.1 grams/fruit/plant/replication/treatment, the “Total Flowers” value is given as 4.3, the “Fruit per Plant” value came to 0.6 and the “Total Fruit No.” value is given as 2.3. Further, the “Total Yield (Fresh Fruit Yield)” value in assay [3] (spray rate ¼X (4 ounces active ingredient/acre), 2,4-D isooctyl ester formulation) is 66.1 grams/plant/replication/treatmen. For the same compound, in assay [3] (spray rate ¼X), the “Fruit Weight (Average Fresh Fruit Weight)” value is 26.0 grams/fruit/plant/replication/treatment, the “Total Flowers” value came out at 6.0, the “Fruit per Plant” value came to 0.8 and the “Total Fruit No.” value turned out to be 3.0. The “effect on average fruit weight” value in assay [3] (control line, ¼× rate) is on record as “increase in average fruit weight”. In assay [3] (control material, ¼× rate), the “effect on total flower number” value is reported as “reducing the number of flowers”.
